Patent US4980357A, “Azolidinedione derivatives” (Pfizer Inc., priority 1990, dated 1990)

Columns and labels:
[1] = system: sorbitol accumulation in the sciatic nerve; assay: inhibition of sorbitol accumulation in the sciatic nerve of streptozotocinized (diabetic) rats; format: in vivo, rat; details: oral, 0.1-10.0 mg./kg., in words
Experimental: (§1) The activity of the compounds of the present invention, as agents for the control of chronic diabetic complications, is determined by their ability to successfully pass one or more of the following standard biological or pharmacological tests, viz., (1) measuring their ability to inhibit the enzyme activity of isolated aldose reductase; (2) measuring their ability to reduce or inhibit sorbitol accumulation in the sciatic nerve and lens of acutely streptozotocinized (i.e., diabetic) rats; (3) measuring their ability to reverse already-elevated sorbitol levels in the sciatic nerve and lens of chronic streptozotocin-induced diabetic rats; (4) measuring their ability to prevent or inhibit galactitol formation in the lens of acutely galactosemic rats, and (5) measuring their ability to delay cataract formation and reduce the severity of lens opacities in chronic galactosemic rats.
(§2) The following spiro-3-heteroazolone compounds of Examples 4A, 4B, 6 and 10A, respectively, were tested for their ability to reduce or inhibit sorbitol accumulation in the sciatic nerve and lens of streptozotocinized (i.e., diabetic) rats by the procedure essentially described in U.S. Pat. No. 3,821,383. In the present study, the amount of sorbitol accumulation in the sciatic nerve and lens of each test animal was measured 27 hours after induction of diabetes. […]

[2] = system: sorbitol accumulation in the lens; assay: inhibition of sorbitol accumulation in the lens of streptozotocinized (diabetic) rats; format: in vivo, rat; details: oral, 0.1-10.0 mg./kg., in words
Experimental: as §1, §2

## C[C@@H]1C[C@]2(NC(=O)NC2=O)c2cc(Cl)cnc2O1 [Example 10A, (4'S)(2'R)-6'-chloro-2',3'-dihydro-2'-methyl-spiro-[imidazolidine-4,4'-4'H-pyrano[2,3-b]pyridine]-2,5-dione]
[1]
  inhibit the formation of sorbitol levels in the sciatic nerve: to a significantly high degree
[2]
  inhibit the formation of sorbitol levels in the lens: to a significantly high degree
